PubChem BioAssay AID1508591

Settings: rat; liver microsomes; pH 7.4; 15.0 min; 1.0 µM

Cc1nnc2c3ccccc3nc(N3CCN(c4ccccc4)CC3)n12
half-life: > 30 min

CC1(C)CC2CC(C)(CN2S(=O)(=O)c2ccc(C(=O)Nc3cccc(S(=O)(=O)N4CCOCC4)c3)cc2)C1 (centres undefined)
half-life: 2.8 min

CNc1oc(-c2cccc(Cl)c2Cl)nc1C#N
half-life: 9.65 min

Cc1ccc(NS(=O)(=O)c2cccc(C(=O)Nc3nc(-c4ccccc4)cs3)c2)cc1
half-life: 6.7 min

CC(C)(C)OC(=O)N[C@@H](Cc1ccc(O[S+](=O)([O-])c2cccc3cnccc23)cc1)C(=O)N1CCN(Cc2ccccc2)CC1
half-life: 1.6 min

COc1cc(C2CC(=O)Nc3cc4c(cc32)OCCO4)cc(Br)c1OC (centres undefined)
half-life: 2.55 min

NC(=O)C1CCN(c2ncc(-c3cccc(N4CCCC4)c3)s2)CC1
half-life: 15 min

Cc1ccc(SC2=NS(=O)(=O)c3ccccc32)c(C)c1
half-life: 1.54 min

CC(=O)c1c(C)[nH]c(C(=O)Nc2cccc([S+](=O)([O-])N3CC[C@@H](F)C3)c2)c1C
half-life: 3.2 min

CN(C)c1ccc(-c2csc(N3CCC(C(N)=O)CC3)n2)cc1
half-life: 4.12 min

CC(=O)Nc1ccc(CN2CCc3nc(C(C)C)nc(-c4ccc(Cl)cc4)c3CC2)cc1
half-life: 4.1 min

Cc1ccc(S(=O)(=O)Nc2ccccc2C(=O)Nc2nc(-c3ccccc3)co2)cc1
half-life: 3.9 min

O=C(Nc1ccc(Cl)c(S(=O)(=O)N2CCOCC2)c1)c1ccc(S(=O)(=O)N2CCCCC2)cc1
half-life: 3 min

Cc1ccc(S(=O)(=O)Nc2cccc(C(=O)Nc3nc(-c4ccccc4)cs3)c2Cl)cc1
half-life: 15 min

COc1ccc(OCCN2CCN(C(=O)c3ccc(OC)cc3)CC2)cc1
half-life: > 30 min

NC1(c2ccccc2Cl)CCCCC1=O (centres undefined)
half-life: 11 min

Nc1nc2c(s1)C(c1ccc(F)c(F)c1)CC(=O)N2 (centres undefined)
half-life: 29.7 min

C[C@H]1[C@@H](CCC(=O)Nc2ccc(F)cc2)O[C@@H]2O[C@]3(C)CC[C@@H]4[C@H](C)CC[C@@H]1[C@@]24OO3
half-life: 2 min

O=C(Nc1nc(-c2ccccc2)cs1)c1ccncc1NS(=O)(=O)c1ccc2c(c1)CCC2
half-life: 5.6 min

C=C1[C@@H](C)C2[C@H](Cc3ccccc3)NC(=O)[C@@]23C(/C=C/C[C@H](C)C[C@@](C)(O)/C=C/[C@@H]3OC(C)=O)[C@@H]1O (some centres undefined)
half-life: 5.2 min

Cc1ccc(S(=O)(=O)Nc2cnccc2C(=O)Nc2ccc(C#N)cc2)cc1
half-life: 7.5 min

Cc1nn2c(c1-c1ccccc1-c1ccccc1)N(CCC(C)C)CCC2
half-life: 1.31 min

O=C(Cc1ccc(Cl)c(Cl)c1)Nc1ccc(S(=O)(=O)Nc2nncs2)cc1
half-life: > 30 min

CCOc1ccc(CCNC(=O)c2cc3ccccc3n2CCN2CCOCC2)cc1OCC
half-life: 1.6 min

O=C(Nc1ccc(N2CCN(c3ncccc3C(F)(F)F)CC2)nc1)c1cccs1
half-life: 10.3 min

O=C(Cc1n[nH]c(=O)c2ccccc12)NC1CCCc2c1[nH]c1c(Cl)cccc21 (centres undefined)
half-life: 8.05 min

CCCN1CNc2c(c(=O)[nH]c(=S)n2CCc2ccc(OC)c(OC)c2)C1
half-life: 18 min

Oc1c(CN2CCN(c3ccccn3)CC2)cc(Cl)c2cccnc12
half-life: 3.23 min

CCN(CC)C(=O)c1coc(COc2ccc3c(c2)C(c2cccc(F)c2)N(C(=O)C(C)C)CC3)n1 (centres undefined)
half-life: 1.28 min

CCOc1ccc(CCN(C)C(=O)c2cc3sccc3n2Cc2ccccc2)cc1OCC
half-life: 1.7 min

O=C(Nc1ccccc1)C1CCN(c2ncc(-c3ccc4c(c3)OCCCO4)s2)CC1
half-life: 1.44 min

CC(=O)c1ccc(-c2csc(N3CCC(C(N)=O)CC3)n2)cc1
half-life: 4.4 min

Cc1ccc(-c2cc(C(=O)NCc3cnn(C)c3)c3cc(Br)ccc3n2)cc1
half-life: > 30 min

CCC1=Nc2cc(C(=O)NC3CCCC3)ccc2Sc2ccc(Cl)cc21
half-life: 1.61 min

O=C(Nc1ncc(Cc2ccc(C(F)(F)F)cc2)s1)c1cnc(-c2ccccc2)o1
half-life: > 30 min

C#CCNC(=O)c1nc(-c2ccc(Cl)nc2)c2ccccn12
half-life: 24 min

O=c1cc(N2CCOCC2)oc2c1ccc1ccccc12
half-life: > 30 min

Cc1ccc(S(=O)(=O)Nc2cccc(C(=O)Nc3nc(-c4ccccc4)cs3)c2)cc1
half-life: 16 min

O=C1c2ccccc2C2=Nc3ccccc3SC(c3ccc(Cl)cc3)C12 (centres undefined)
half-life: 2.96 min

CC1(C)CCC(c2ccc(Cl)cc2)=C(CN2CCN(c3ccc(C(=O)NS(=O)(=O)c4ccc(N[C@H](CCN5CCOCC5)CSc5ccccc5)c(S(=O)(=O)C(F)(F)F)c4)cc3)CC2)C1
half-life: > 30 min

O=S(=O)(Nc1ccccc1)c1ccc(NCc2cccc(Cl)c2O)cc1
half-life: 2.2 min

CC(=O)Nc1ncc(S(=O)(=O)Nc2cnccc2C(=O)Nc2nc(-c3ccccc3)cs2)s1
half-life: > 30 min

Nc1nc2c(s1)C(c1c(Cl)cccc1Cl)CC(=O)N2 (centres undefined)
half-life: 23.8 min

CCOC(=O)c1ccc2c(c1)c(C(C)=O)c(C)n2-c1ccc(OC)cc1
half-life: 1.5 min

Cc1ccc(-c2[nH]n3c(=O)c4c(nc3c2C)CCCC4)cc1
half-life: 8.72 min

CCN(CC)S(=O)(=O)c1ccc2oc(C(=O)Nc3ccc(Br)cc3F)c(C)c2c1
half-life: 7.91 min

Cc1cccc(C)c1C(=O)Nc1cccc([S+](=O)([O-])N2CCCCCC2)c1
half-life: 1.6 min

Cc1cc(C)c(CNC(=O)c2nc(-c3cccc(CO)c3)cc3c2ccn3C)c(=O)[nH]1
half-life: 8.11 min

Cn1nnnc1Sc1ncnc2scc(-c3cc4ccccc4o3)c12
half-life: 1.05 min

Cc1nc2nc(NC(=O)c3ccc(C(C)(C)C)cc3)[nH]n2c(=O)c1Cl
half-life: 21 min

CC(C)(N)CNC(=O)CC1CCC2(CC1)OOC1(O2)C2CC3CC(C2)CC1C3 (centres undefined)
half-life: > 30 min

COCCOc1cnc2ccn([C@H](C)c3nnc4c(F)cc(-c5cnn(C)c5)cn34)c(=O)c2c1
half-life: > 30 min

Cc1ccc(C(=O)N2CCc3cc(-c4nc(NC(=O)Cc5ccc6c(c5)OCO6)sc4C)ccc32)cc1
half-life: 6 min

CCNC(=O)c1ccc(-c2ccc3ncnc(NCC4CCCO4)c3c2)o1 (centres undefined)
half-life: > 30 min

COc1cc(C(=O)Nc2nc(-c3ccccc3)cs2)ccc1NS(=O)(=O)c1ccc(C)cc1
half-life: 5.2 min

CCc1cccc(CC)c1-n1c(C=C(C)C)c(C(=O)N2CCNCC2)cc(-c2nc(-c3ccc(C(F)(F)F)cc3)cs2)c1=O
half-life: > 30 min

Fc1cc(Nc2nc(-c3ccncc3)nc3ccccc23)ccc1-c1cccnc1
half-life: 17 min

COc1ccc(-c2cnc(N3CCC(C(N)=O)CC3)s2)cc1OC
half-life: > 30 min

COc1ccc(-c2cc3nccn3c(Nc3ncccc3C(N)=O)n2)cc1OC
half-life: > 30 min

CCn1ncc(NC(=O)Cn2ncc3cc(-c4cccc(OC)c4)ccc32)n1
half-life: 20.4 min

COCCN1CCNc2nc(COc3ccc(C(C)C)cc3)n(Cc3ccccc3)c2C1=O
half-life: 1.82 min

COc1ccc(-c2ccc3nc(-c4cc(F)cc(F)c4F)oc3c2)c(OC)c1OC
half-life: > 30 min

COc1ccc2cc1Oc1ccc(cc1)C[C@@H]1c3c(cc(OC)c4c3Oc3cc5c(cc3O4)CCN[C@H]5C2)CCN1C
half-life: > 30 min

CS(=O)(=O)c1ccc(-c2nnc(/C=C/c3nnc(-c4ccc(C#N)cc4)o3)n2-c2ccccc2Cl)nc1
half-life: > 30 min

COc1ccccc1NC(=O)C1=C(C)Nc2c(C(=O)Nc3ccc(F)cc3)cnn2C1c1ccc(Cl)cc1 (centres undefined)
half-life: 3.34 min

CN(C)c1cccc(-c2ncnc(N3CCC(C(N)=O)CC3)n2)c1
half-life: 5.7 min

O=C1NC(=S)NC(=O)C1=Cc1cccn1-c1ccc(O)cc1
half-life: 10.5 min

CC(=O)OCCN1C(=O)c2c(C)nc3ccc(S(=O)(=O)N4CCOCC4)cc3c2C1=O
half-life: 2.05 min

CSc1ccc(C(=O)c2[nH]c(=O)[nH]c2C)cc1
half-life: > 30 min

COc1nccc(-c2nc(Nc3ccc(F)c(F)c3)c3ccccc3n2)c1Cl
half-life: > 30 min

CCOC(=O)CCNc1cc(N2CCc3ccccc3CC2)nc(-c2ccccn2)n1
half-life: 1.5 min

O=C(O)c1ccnc2cc(C(OCC3CCC(F)(F)CC3)c3ccccc3Cl)[nH]c12 (centres undefined)
half-life: > 30 min

CCCCCCCCc1ccc(CCC(N)(CO)CO)cc1
half-life: > 30 min

O=C(Nc1cc(C(F)(F)F)ccc1N1CCOCC1)c1n[nH]c(=O)c2ccccc12
half-life: > 30 min

CNc1oc(-c2ccccc2-c2ccccc2)nc1C#N
half-life: 5.8 min

COc1ccc(-c2ccc3ncc(Nc4ccc(C(N)=O)cc4)n3n2)cc1OC
half-life: > 30 min

COc1cccc(CNc2ccc(S(=O)(=O)Nc3nc(C)cs3)cc2)c1O
half-life: > 30 min

O=S(=O)(Nc1ccc(-c2ccccc2)cc1)c1ccc(NCc2ccc(Br)cc2O)cc1
half-life: 21 min

Cc1nc([C@](C)(O)CO)sc1-c1cnc(N)c(O[C@H](C)c2cc(F)ccc2-n2nccn2)c1
half-life: 22.6 min

COc1ccc2c(c1)N(C[C@H](C)CN(C)C)c1ccccc1S2
half-life: 2.07 min

COc1cc(-c2nc(-c3ccccc3)c(-c3cccs3)[nH]2)cc(OC)c1O
half-life: > 30 min

CCOC(=O)c1nn(-c2ccc(OC)cc2)c(=O)c2c(N)scc12
half-life: 9.52 min

NC(=O)C1CCN(c2ncc(-c3cccc(F)c3)s2)CC1
half-life: 9.48 min

CCOC(=O)c1[nH]c(C)c(CCC(=O)N2CCN(c3cc(C)ccc3C)CC2)c1C
half-life: 2.27 min

O=C(Nc1cccc(C(F)(F)F)c1)c1ccccc1NC(=O)C1CCCCC1
half-life: 25 min

COc1cccc(CNC(=O)c2ccc(N3CCCC3)c(NC(=O)Nc3ccccc3F)c2)c1
half-life: 1.7 min

O=C(Nc1ccc(Oc2ccnc3[nH]ccc23)c(F)c1)c1cccn(-c2ccc(F)cc2)c1=O
half-life: 13.1 min

Cc1ccnc(NC(=S)N2CCN(c3cccc(Cl)c3Cl)CC2)c1
half-life: 2.4 min

Cc1ccc(-c2ccnc(N3CCC(C(N)=O)CC3)n2)cc1
half-life: 2.35 min

CCN(CC)CCNC(=O)C1CCN(c2nn3cc(-c4ccc(F)cc4)nc3s2)CC1
half-life: > 30 min

CCCCCN(CCC12CC3CC(CC(C3)C1)C2)C(=O)NCCCc1ccncc1
half-life: 3.7 min

COc1ccc(C(=O)N[C@@H]2CCC[C@@H]2C(=O)N2CCC(Cc3ccccc3)CC2)cc1
half-life: 2.66 min

Cc1ccc(S(=O)(=O)Nc2cc(C)ccc2C(=O)Nc2nc(-c3ccccc3)cs2)cc1
half-life: 2.5 min

CCCCCCN(CCCCCC)C(=O)Cc1c(-c2ccc(F)cc2)[nH]c2ccccc12
half-life: 2.5 min

O=S(=O)(Nc1nccs1)c1ccc(NCc2ccc(Br)cc2O)cc1
half-life: 5.4 min

Cc1ccc(NS(=O)(=O)c2cccc(C(=O)O)c2)cc1S(=O)(=O)N1CCOCC1
half-life: > 30 min

O=C1Nc2ccccc2/C1=C/c1ccnc2ccccc12
half-life: 4.5 min

C[C@@H]1CN(CC(=O)N2CC(C)(C)c3ncc(Cc4ccc(F)cc4)cc32)[C@@H](CN2CCOC[C@H]2C)CN1
half-life: 7.57 min

c1ccc(CNc2nc(NCc3ccccc3)c3ccccc3n2)cc1
half-life: 5.2 min
